Results: patent US20190231740A1, “BLOOD FLOW-IMPROVING AGENT, ROYAL JELLY COMPOSITION, AND METHOD FOR PRODUCING ROYAL JELLY COMPOSITION” (YAMADA BEE COMPANY, INC., priority 2016, published 2019)

Tested on: blood flow volume of a hindlimb of the rat
Test: Hindlimb blood flow volume of rats after oral administration, measured with a two-dimensional laser blood flow meter
Format: in vivo
Conditions: male SD rat hindlimb; for Increase in blood flow volume: one hour after oral administration vs before administration, average of three rats; for Increase in blood flow volume / Change in hindlimb blood flow volume between before and after the administration (in words): 10-hydroxydecanoic acid 120 mg/kg, 10-H2DA 420 mg/kg, Toki-shakuyaku-san 3750 mg/kg; for Change in hindlimb blood flow volume between before and after the administration (in words): one hour after oral administration
Method: As a test animal, a 6 to 8 week-old male rat Slc: SD rat (Japan SLC, Inc.) was used. As test substances, 10-hydroxydecanoic acid (manufactured by Combi-Blocks Inc.), trans-10-hydroxy-2-decenoic acid (referred to as “10-H2DA” hereinafter, manufactured by HANGZOU EASTBIOPHARM CO., LTD.) and Toki-shakuyaku-san (manufactured by TSUMURA & CO.) were used. A 0.5% w/v aqueous solution of methyl cellulose 400 (Wako Pure Chemical Industries, Ltd.) was prepared, and in the aqueous solution, the test substances were each suspended, thereby preparing a 12 mg/mL solution of 10-hydroxydecanoic acid, a 42 mg/ml solution of 10-H2DA and a 375 mg/ml solution of Toki-shakuyaku-san. The test animals were divided into four groups each consisting of three animals, and these groups were referred to as a 10-hydroxydecanoic acid group, a 10-H2DA group, a Toki-shakuyaku-san group and a control group. Using a gastric tube, the respective methyl cellulose aqueous solutions were orally administered to the 10-hydroxydecanoic acid group in such a desired amount that the amount of 10-hydroxydecanoic acid was 120 mg/kg, to the 10-H2DA group in such a desired amount that the amount of 10-H2DA was 420 mg/kg, and to the Toki-shakuyaku-san group in such a desired amount that the amount of Toki-shakuyaku-san was 3750 mg/kg. To the control group, a control substance (0.5% w/v methyl cellulose aqueous solution 10 mL/kg) was orally administered using a gastric tube.
Before the administration of the test substance and after one hour from the administration, a blood flow volume of a hindlimb of the rat was measured in an awaking and non-fixed state. For the measurement, a two-dimensional laser blood flow meter OZ-1 (manufactured by OMEGAWAVE INC.) was used. An increase in the blood flow volume (average value of three rats) based on that before the administration of each of the control group, the 10-hydroxydecanoic acid group, the 10-H2DA group and the Toki-shakuyaku-san group after one hour from the administration is shown in Table 1.

O=C(O)CCCCCCCCCO [10-Hydroxydecanoic acid, 10-hydroxydecanoic acid]
Difference in blood flow volume between the control group and the treated group (one hour after oral administration of 120 mg/kg, FIG. 1): a significant difference (P=0.01)
Increase in blood flow volume: 5.8 arbitrary unit
Change in hindlimb blood flow volume between before and after the administration (in words): a remarkable increase in the blood flow volume

O=C(O)/C=C/CCCCCCCO [10-H2DA, trans-10-hydroxy-2-decenoic acid, reference compound]
Increase in blood flow volume: 2.2 arbitrary unit
Change in hindlimb blood flow volume between before and after the administration (in words): a certain increase in the blood flow volume
